# Assay results published in ChEMBL document CHEMBL5230095, “Advances in research of spirodienone and its derivatives: Biological activities and synthesis methods” (Eur J Med Chem, 2020).
# Key:
# Plasmodium falciparum = test: Antimalarial activity against Plasmodium falciparum 3D7; format: functional, organism-based
# Jurkat = test: Cytotoxicity against human Jurkat cells; format: functional, cell-based
# K562 = test: Cytotoxicity against human K562 cells; format: functional, cell-based
# in vitro = conditions: dog, MDCK cells, TI
# Description: Therapeutic index, ratio of TC50 for MDCK cells to IC50 for antiviral activity against influenza A virus (A/Hanfang/359/95(H3N2))
# [1] = (§1) Cytotoxicity against MDCK cells; format: toxicity, cell-based, Canis lupus familiaris; conditions: dog, MDCK cells; read-out: TC50 (the source's name)
# Influenza A virus [2] = test: microbe, parasite or virus in culture; conditions: H3N2, MDCK
# Description: (§2) Antiviral activity against influenza A virus (A/Hanfang/359/95(H3N2)) infected in MDCK cells
# NCI-H460 = test: Antiproliferative activity against human NCI-H460 cells; format: functional, cell-based
# KB = test: Antiproliferative activity against human KB cells; format: functional, cell-based
# HeLa = test: Antiproliferative activity against human HeLa cells; format: functional, cell-based
# MCF7 = test: Antiproliferative activity against human MCF7 cells; format: functional, cell-based
# SF-268 = test: Antiproliferative activity against human SF-268 cells; format: functional, cell-based
# [3] = Antiinflammatory activity in human polymorphonuclear neutrophils assessed as reduction in LPS-stimulated IL-1beta release; format: functional, Polymorphonuclear neutrophil; set-up: scale not given: the % may be the effect or the level left
# [4] = Antiinflammatory activity in human polymorphonuclear neutrophils assessed as reduction in LPS-stimulated IL-8 release; format: functional, Polymorphonuclear neutrophil; set-up: scale not given: the % may be the effect or the level left
# [5] = Antiinflammatory activity in human polymorphonuclear neutrophils assessed as reduction in LPS-stimulated TNFalpha release; format: functional, Polymorphonuclear neutrophil; set-up: scale not given: the % may be the effect or the level left
# Streptococcus pneumoniae = test: Antibacterial activity against Streptococcus pneumoniae; format: functional
# Staphylococcus aureus = test: Antibacterial activity against Staphylococcus aureus; format: functional
# Enterococcus faecalis = test: Antibacterial activity against Enterococcus faecalis; format: functional
# [6] = Inhibition of yeast pre-mRNA splicing; set-up: species or system Saccharomyces cerevisiae
# A549 = test: Antiproliferative activity against human A549 cells; format: functional, cell-based
# MDA-MB-231 = test: Antiproliferative activity against human MDA-MB-231 cells; format: functional, cell-based
# Neutrophil elastase = Neutrophil elastase (Homo sapiens, UniProt P08246); test: Inhibition of human neutrophil elastase activity assessed as reduction in elastase release
# Sequence of Neutrophil elastase (P08246 whole entry): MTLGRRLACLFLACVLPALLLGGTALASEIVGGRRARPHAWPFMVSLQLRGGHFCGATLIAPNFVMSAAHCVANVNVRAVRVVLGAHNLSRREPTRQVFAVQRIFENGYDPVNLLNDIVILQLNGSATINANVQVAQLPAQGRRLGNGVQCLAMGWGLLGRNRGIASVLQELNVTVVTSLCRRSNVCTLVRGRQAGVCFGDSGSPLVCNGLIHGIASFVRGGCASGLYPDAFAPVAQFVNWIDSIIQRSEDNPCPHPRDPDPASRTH
# HL-60 = test: Antiproliferative activity against human HL-60 cells; format: functional, cell-based
# SMMC-7721 = test: Antiproliferative activity against human SMMC-7721 cells; format: functional, cell-based
# SW480 = test: Antiproliferative activity against human SW480 cells; format: functional, cell-based
# [7] = biological target: DNA polymerase alpha catalytic subunit (Homo sapiens, UniProt P09884); test: Inhibition of DNA polymerase alpha (unknown origin)
# Sequence of DNA polymerase alpha catalytic subunit (P09884 whole entry): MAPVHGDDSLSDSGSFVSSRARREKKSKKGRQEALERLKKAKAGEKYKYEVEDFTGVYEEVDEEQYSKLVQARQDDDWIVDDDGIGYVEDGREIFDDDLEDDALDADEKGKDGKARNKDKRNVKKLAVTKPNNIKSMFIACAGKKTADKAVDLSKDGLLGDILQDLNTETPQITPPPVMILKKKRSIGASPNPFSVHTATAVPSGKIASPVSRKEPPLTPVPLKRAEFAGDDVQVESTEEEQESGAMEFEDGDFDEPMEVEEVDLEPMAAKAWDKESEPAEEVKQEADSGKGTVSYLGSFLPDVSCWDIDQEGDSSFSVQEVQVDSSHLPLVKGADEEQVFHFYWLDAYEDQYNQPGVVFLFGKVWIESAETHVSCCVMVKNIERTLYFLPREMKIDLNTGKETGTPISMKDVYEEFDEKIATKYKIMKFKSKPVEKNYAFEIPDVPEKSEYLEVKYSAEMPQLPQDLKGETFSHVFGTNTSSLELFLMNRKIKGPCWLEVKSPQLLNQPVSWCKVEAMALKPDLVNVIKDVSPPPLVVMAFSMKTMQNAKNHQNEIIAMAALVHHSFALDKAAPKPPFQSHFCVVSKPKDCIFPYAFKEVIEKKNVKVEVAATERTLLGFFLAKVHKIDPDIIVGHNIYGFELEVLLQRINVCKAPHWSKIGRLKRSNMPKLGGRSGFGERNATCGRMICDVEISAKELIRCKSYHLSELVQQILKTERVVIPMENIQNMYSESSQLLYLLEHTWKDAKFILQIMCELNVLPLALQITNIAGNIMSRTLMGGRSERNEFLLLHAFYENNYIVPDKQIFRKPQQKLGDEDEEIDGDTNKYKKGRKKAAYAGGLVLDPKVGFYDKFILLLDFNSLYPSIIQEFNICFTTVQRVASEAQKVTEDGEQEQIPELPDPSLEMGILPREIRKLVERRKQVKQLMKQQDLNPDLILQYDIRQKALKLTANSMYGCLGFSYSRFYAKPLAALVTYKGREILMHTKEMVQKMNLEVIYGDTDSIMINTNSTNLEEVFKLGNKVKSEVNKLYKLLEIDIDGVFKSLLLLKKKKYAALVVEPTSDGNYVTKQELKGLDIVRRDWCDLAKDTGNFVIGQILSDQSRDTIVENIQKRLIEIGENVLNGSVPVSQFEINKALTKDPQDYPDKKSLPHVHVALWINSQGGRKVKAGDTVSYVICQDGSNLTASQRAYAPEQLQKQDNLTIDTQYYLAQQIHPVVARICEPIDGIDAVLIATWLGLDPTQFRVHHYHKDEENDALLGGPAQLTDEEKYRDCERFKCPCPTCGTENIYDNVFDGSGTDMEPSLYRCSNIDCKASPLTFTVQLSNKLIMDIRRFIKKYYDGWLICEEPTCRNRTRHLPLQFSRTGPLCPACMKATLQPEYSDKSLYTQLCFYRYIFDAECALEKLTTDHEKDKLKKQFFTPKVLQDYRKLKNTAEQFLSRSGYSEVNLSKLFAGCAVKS
# MDCK = test: as §1; format: toxicity, cell-based, Canis lupus familiaris; conditions: dog, mdck; read-out: TC50 (the source's name)
# Influenza A virus [8] = conditions: mdck
# Description: as §2
smiles,measurement,setting,value
C#CCCCCCCCCCCCN1C(=O)C(C2(OCC)CCC3(C=CC(=O)C=C3)O2)C12C=CC(=O)C=C2 (stereo in doubt; 30),IC50,"Plasmodium falciparum; Plasmodium falciparum, 3D7",1.72 µM
same,IC50,"Jurkat; Homo sapiens, Jurkat",0.14 µM
same,IC50,"K562; Homo sapiens, K562",0.32 µM
COC1=CC(=O)c2ccc(=O)oc2[C@]12[C@H](c1c(OC)cc(OC)c3ccc(=O)oc13)[C@H]1[C@H](c3c(OC)cc(OC)c4ccc(=O)oc34)C=C(C)C[C@]1(C)C[C@@H]2C=C(C)C,selectivity ratio,in vitro,7.9
same,CC50,[1],77.6 µM
same,IC50,Influenza A virus [2],8.62 µM
COC(=O)[C@@]1(C2C=CC(=O)C=C2)c2cc(O)cc(O)c2[C@@H](c2ccc(O)cc2)C(=O)c2cc(O)cc(O)c21,IC50,NCI-H460,32.7 µM
same,IC50,KB,33.2 µM
same,IC50,HeLa,25.7 µM
same,IC50,MCF7,28 µM
same,IC50,SF-268,29.2 µM
C#CCCCCCCCCCCCN1C(=O)C(C2(OCC)CCC3(C=CC(=O)C=C3)O2)C12C=CC(=O)C=C2 (stereo in doubt; 31),IC50,Plasmodium falciparum,1.41 µM
same,IC50,Jurkat; jurkat,0.15 µM
same,IC50,K562; k562,0.36 µM
O=C1C=CC2(C=C1)CCc1cc(O)cc(O[C@@H]3C[C@H](CO[C@@H]4OC[C@](O)(COC(=O)/C=C/c5ccc(O)c(O)c5)[C@@H]4O)[C@@H](O)[C@H](O)[C@H]3O)c12,Activity,[3],90%
same,Activity,[4],28%
same,Activity,[5],20%
CCCCCCCCCCCCC/C(O)=C1\C(=O)N(Cc2ccccc2)CC12C=CC(=O)C=C2,IC50,"Plasmodium falciparum; Plasmodium falciparum, 3D7",2.29 µM
same,IC50,"Jurkat; Homo sapiens, Jurkat",1.42 µM
same,IC50,"K562; Homo sapiens, K562",1.73 µM
COC1=CC(=O)c2ccc(=O)oc2[C@]12[C@H](C=C(C)C)C[C@]1(C)CC(C)=C[C@H](c3c(OC)cc(OC)c4ccc(=O)oc34)[C@H]1[C@@H]2c1c(OC)cc(OC)c2ccc(=O)oc12,selectivity ratio,in vitro,3.3
same,CC50,[1],57.7 µM
same,IC50,Influenza A virus [2],17.5 µM
COc1cc(O)cc2c1C(=O)C(Cl)=C1O[C@@](C)(CCC=C(C)C)[C@@H]3CC(=C(C)C)C[C@@]123,MIC,Streptococcus pneumoniae,> 64 µg/mL
same,MIC,Staphylococcus aureus,> 64 µg/mL
same,MIC,Enterococcus faecalis,> 64 µg/mL
O=C1CCC2(C=CC(=O)C(NC(=O)c3ccccc3)=C2)O1 (stereo unspecified),IC50,[6],600 µM
CC(C)=CCC[C@]1(C)OC2=C(Cl)C(=O)c3c(O)cc(O)cc3[C@@]23CC(=C(C)C)C[C@@H]13,MIC,Streptococcus pneumoniae,8 µg/mL
same,MIC,Staphylococcus aureus,1 µg/mL
same,MIC,Enterococcus faecalis,1 µg/mL
O=C1C=CC2(C=C1)OCC(=O)N2c1nc(-c2cccs2)nn1-c1ccccc1,IC50,HeLa,0.0453 µM
same,IC50,MCF7,0.00411 µM
same,IC50,A549,0.0252 µM
same,IC50,MDA-MB-231,0.0008 µM
NC(=O)c1ncn([C@@H]2O[C@H](CO)[C@@H](O)[C@H]2O)n1 [RIBAVIRIN],selectivity ratio,in vitro,771
same,CC50,[1],4770 µM
same,IC50,Influenza A virus [2],6.19 µM
COc1cc2c(c3c1CCC(c1ccccc1)O3)C1C3C(c4ccc(O)c(C)c4OC)C(C(O)(OC)c4ccccc4)C14C(C=CC(=O)C4OC)OC3(c1ccccc1)O2 (stereo unspecified),IC50,Neutrophil elastase,6.53 µM
CC(C)=CCC[C@]1(C)OC2=C(Cl)C(=O)C=C[C@@]23CC(=C(C)C)C[C@@H]13,MIC,Streptococcus pneumoniae,> 64 µg/mL
same,MIC,Staphylococcus aureus,> 64 µg/mL
same,MIC,Enterococcus faecalis,> 64 µg/mL
C#CCCCCCCC(=O)C1C(=O)N(Cc2ccccc2)C12C=CC(=O)C=C2 (stereo unspecified),IC50,"Plasmodium falciparum; Plasmodium falciparum, 3D7",7.7 µM
same,IC50,"Jurkat; Homo sapiens, Jurkat",7.4 µM
same,IC50,"K562; Homo sapiens, K562",15.3 µM
COC1=C[C@@H]2[C@@H]3Cc4c(CN5CCc6cc(OC)c(OC)c7c6[C@@H]5CC75C=CC(=O)C=C5)cc(OC)c(O)c4[C@]2(CCN3C)CC1=O,IC50,HL-60,17400 µM
same,IC50,SMMC-7721,17100 µM
same,IC50,A549,18500 µM
same,IC50,SW480,18300 µM
COc1cc(OC(C)=O)c2c(c1)C1(C=C(OC(C)=O)C(=O)C=C1C)OC2=O (stereo unspecified),IC50,[7],0.68 µM
CC1=C/[C@@H](C)/C=C(\C)[C@]2(O)[C@H](C)[C@@H]3[C@@H](C(C)C)C(=O)N[C@]34C(=O)c3cc(C)c(O)c(c3C(=O)[C@@H]42)C(=O)\C(C)=C\1,MIC,Staphylococcus aureus,31.2 µg/mL
O=C1C=CC2(C=C1)CCc1cc(O)cc(O[C@@H]3C[C@H](CO)[C@@H](O)[C@H](O)[C@H]3O)c12,Activity,[3],105%
same,Activity,[4],70%
same,Activity,[5],38%
COC1=CC(=O)c2ccc(=O)oc2C12C(C=C(C)C)CC1(C)CC(C)=CC(c3c(OC)cc(OC)c4ccc(=O)oc34)C1C2c1c(OC)cc(OC)c2ccc(=O)oc12 (racemic; form 2),CC50,MDCK,25.9 µM
same,IC50,Influenza A virus [8],2.87 µM
O=C1C=CC(=C2C(=O)c3cc(O)cc4c3[C@@](c3ccc(O)cc3)(C(=O)O4)c3cc(O)cc(O)c32)C=C1,IC50,NCI-H460,> 100 µM
same,IC50,KB,> 100 µM
same,IC50,HeLa,> 100 µM
same,IC50,MCF7,99 µM
same,IC50,SF-268,> 100 µM
O=c1c(O)c(-c2ccc(O)c(O)c2)oc2cc(O)cc(O)c12 [QUERCETIN],Activity,[3],4%
same,Activity,[4],18%
same,Activity,[5],28%
Cc1cc(C)c2c(c1)OCC(=O)N2c1nc(-c2ccc(Cl)cc2Cl)nn1-c1ccccc1,IC50,HeLa,25.2 µM
same,IC50,MDA-MB-231,2.85 µM
CCCCCCCCCCCCCC(=O)C1C(=O)N(Cc2ccccc2)C12C=CC(=O)C=C2 (stereo unspecified),IC50,"Plasmodium falciparum; Plasmodium falciparum, 3D7",1.35 µM
same,IC50,"Jurkat; Homo sapiens, Jurkat",2.88 µM
same,IC50,"K562; Homo sapiens, K562",5.47 µM
CC(=O)NC1=CC2(C=CC1=O)CC(NS(=O)(=O)c1ccc(C)cc1)C(=O)O2 (stereo unspecified),IC50,[6],1700 µM
COC1=CC(=O)c2ccc(=O)oc2[C@@]12[C@H](C=C(C)C)C[C@]1(C)CC(C)=C[C@H](c3c(OC)cc(OC)c4ccc(=O)oc34)[C@H]1[C@@H]2c1c(OC)cc(OC)c2ccc(=O)oc12,selectivity ratio,in vitro,6.9
same,CC50,[1],77.6 µM
same,IC50,Influenza A virus [2],11.1 µM
CC(=O)NC1=CC2(C=CC1=O)CCC(=O)O2 (stereo unspecified),IC50,[6],800 µM
COC1=CC(=O)c2ccc(=O)oc2[C@@]12[C@H](c1c(OC)cc(OC)c3ccc(=O)oc13)[C@H]1[C@H](c3c(OC)cc(OC)c4ccc(=O)oc34)C=C(C)C[C@]1(C)C[C@@H]2C=C(C)C,selectivity ratio,in vitro,1.9
same,CC50,[1],19.2 µM
same,IC50,Influenza A virus [2],9.86 µM
C/C(=C\C=C/[C@@H](C)/C=C(\C)C(=O)C1[C@@H]2[C@@H](CC(C)C)C(=O)N[C@@]23C[C@]1(O)c1cc(O)c(C)cc1C3=O)C(=O)O (stereo partly specified),MIC,Staphylococcus aureus,31.2 µg/mL
COC1=CC2(C=CC1=O)CCC(=O)O2 (stereo unspecified),IC50,[6],3000 µM
Cc1ccc(S(=O)(=O)NC2CC3(C=CC(=O)C(NC(=O)c4ccccc4)=C3)OC2=O)cc1 (stereo unspecified),IC50,[6],700 µM
C/C1=C/[C@@H](C)/C=C(\C)C(=O)[C@@H](C)[C@@H]2[C@@H](C)C(=O)N[C@@]23C[C@]24O[C@](C)(C(=O)c5c(O)c(C)cc(c52)C3=O)C14 (stereo partly specified),MIC,Staphylococcus aureus,62.5 µg/mL
CCCCCCCCCCCCN1C(=O)C(C2(OC)CCC3(C=CC(=O)C=C3)O2)C12C=CC(=O)C=C2 (stereo in doubt; 28),IC50,"Plasmodium falciparum; Plasmodium falciparum, 3D7",1.68 µM
same,IC50,Jurkat; jurkat,0.35 µM
same,IC50,K562; k562,0.62 µM
COC1=C[C@@]23CCN(C)[C@@H](Cc4c(CN5CCc6cc(OC)c(O)cc6[C@H]5Cc5ccc(O)cc5)cc(OC)c(O)c42)C3=CC1=O,IC50,HL-60,> 40000 µM
same,IC50,SMMC-7721,> 40000 µM
same,IC50,A549,> 40000 µM
same,IC50,SW480,> 40000 µM
CCCCCCCCCCCCN1C(=O)C(C2(OC)CCC3(C=CC(=O)C=C3)O2)C12C=CC(=O)C=C2 (stereo in doubt; 29),IC50,Plasmodium falciparum,0.91 µM
same,IC50,Jurkat; jurkat,0.06 µM
same,IC50,K562; k562,0.18 µM
CCOC(=O)C1=C[C@@H](OC(CC)CC)[C@H](NC(C)=O)[C@@H](N)C1 [OSELTAMIVIR],selectivity ratio,in vitro,910
same,CC50,[1],3070 µM
same,IC50,Influenza A virus [2],3.38 µM
COc1cc(O)c2c(c1)C1(C=C(OC(C)=O)C(=O)C=C1C)OC2=O (stereo unspecified),IC50,[7],28 µM
COC1=CC(=O)c2ccc(=O)oc2C12C(C=C(C)C)CC1(C)CC(C)=CC(c3c(OC)cc(OC)c4ccc(=O)oc34)C1C2c1c(OC)cc(OC)c2ccc(=O)oc12 (racemic; form 1),CC50,MDCK,6.42 µM
same,IC50,Influenza A virus [2],3.13 µM
